Experimental data reported in ChEMBL document CHEMBL4308854, “Novel indole-thiazolidinone conjugates: Design, synthesis and whole-cell phenotypic evaluation as a novel class of antimicrobial agents” (Eur J Med Chem, 2018).
Values after ≈ are worked out from the molar mass of the structure shown.

Key:
[1] = tested on: Candida albicans; test: Antifungal activity against Candida albicans RCMB 05036 after 24 hrs by serial dilution method; assay type: functional; conditions: RCMB 05036, 24 h
[2] = Stability in mouse RAW264.7 cells measured after 48 hrs; assay type: ADME, cell-based; conditions: raw264.7, 48 h
[3] = Selectivity index, ratio of GI50 for mouse RAW264.7 cells to MIC for Mycobacterium aurum infected in mouse RAW264.7 cells; assay type: toxicity, cell-based; conditions: read-out: Selectivity Index
[4] = tested on: Pseudomonas aeruginosa; test: Antibacterial activity against Pseudomonas aeruginosa RCMB 010043 assessed as diameter of zone inhibition after 24 hrs by agar well diffusion assay; assay type: functional
[5] = tested on: Aspergillus fumigatus; test: Potency index, ratio of amphotericin B MIC to compound MIC for antifungal activity against Aspergillus fumigatus RCMB 02568; assay type: functional
[6] = tested on: Candida albicans; test: Antifungal activity against Candida albicans RCMB 05036 assessed as diameter of zone inhibition after 48 hrs by agar well diffusion assay; assay type: functional
[7] = Cytotoxicity against mouse RAW264.7 cells; assay type: cell-based
[8] = tested on: Mycobacterium tuberculosis; test: Antitubercular activity against Mycobacterium tuberculosis RCMB 010126 clinical isolate after 4 days by microplate alamar blue assay; assay type: functional; conditions: for MIC: Mycobacterium tuberculosis, RCMB 010126, 96 h
[9] = tested on: Mycolicibacterium aurum; test: Antitubercular activity against Mycobacterium aurum infected in mouse RAW264.7 cells measured after 48 hrs; assay type: functional
[10] = tested on: Escherichia coli; test: Antibacterial activity against Escherichia coli RCMB 010052 assessed as diameter of zone inhibition after 24 hrs by agar well diffusion assay; assay type: functional
[11] = tested on: Pseudomonas aeruginosa; test: Antibacterial activity against Pseudomonas aeruginosa RCMB 010043 after 24 hrs by serial dilution method; assay type: functional; conditions: RCMB 010043, 24 h
[12] = tested on: Aspergillus fumigatus; test: Antifungal activity against Aspergillus fumigatus RCMB 02568 assessed as diameter of zone inhibition after 48 hrs by agar well diffusion assay; assay type: functional
[13] = tested on: Escherichia coli; test: Antibacterial activity against Escherichia coli RCMB 010052 after 24 hrs by serial dilution method; assay type: functional; conditions: RCMB 010052, 24 h
[14] = tested on: Staphylococcus aureus; test: Antibacterial activity against Staphylococcus aureus RCMB 010028 after 24 hrs by serial dilution method; assay type: functional; conditions: RCMB 010028, 24 h
[15] = tested on: Pseudomonas aeruginosa; test: Potency index, ratio of ciprofloxacin MIC to compound MIC for Pseudomonas aeruginosa RCMB 010043; assay type: functional
[16] = tested on: Staphylococcus aureus; test: Antibacterial activity against Staphylococcus aureus RCMB 010028 assessed as diameter of zone inhibition after 24 hrs by agar well diffusion assay; assay type: functional
[17] = tested on: Aspergillus fumigatus; test: Antifungal activity against Aspergillus fumigatus RCMB 02568 after 24 hrs by serial dilution method; assay type: functional; conditions: RCMB 02568, 24 h
[18] = tested on: Mycobacterium tuberculosis; test: Potency index, ratio of isoniazid MIC to compound MIC for antitubercular activity against Mycobacterium tuberculosis RCMB 010126 clinical isolate; assay type: functional
[19] = tested on: Staphylococcus aureus; test: Potency index, ratio of ciprofloxacin MIC to compound MIC for Staphylococcus aureus RCMB 010028; assay type: functional
[20] = tested on: Escherichia coli; test: Potency index, ratio of ciprofloxacin MIC to compound MIC for Escherichia coli RCMB 010052; assay type: functional
[21] = tested on: Aspergillus fumigatus; test: Potency index, ratio of amphotericin B MIC to compound MIC for Aspergillus fumigatus RCMB 02568; assay type: functional
[22] = tested on: Staphylococcus aureus; test: Antibacterial activity against methicillin-resistant Staphylococcus aureus ATCC 33592 after 24 hrs by serial dilution method; assay type: functional; conditions: ATCC 33592, 24 h
[23] = tested on: Enterococcus faecium; test: Antibacterial activity against vancomycin-resistant Enterococcus faecium ATCC 700221 after 24 hrs by serial dilution method; assay type: functional; conditions: ATCC 700221, 24 h

| Structure (SMILES) | MIC [1] [µg/mL] | Stability [2] | selectivity ratio [3] | diameter of the inhibition zone (DIZ) [4] [mm] | Ratio [5] | diameter of the inhibition zone (DIZ) [6] [mm] | GI50 [7] [µg/mL] | inhibition (INH) [8] [%] | MIC [8] [µg/mL] | MIC [9] [µg/mL] | diameter of the inhibition zone (DIZ) [10] [mm] | MIC [11] [µg/mL] | diameter of the inhibition zone (DIZ) [12] [mm] | MIC [13] [µg/mL] | MIC [14] [µg/mL] | Ratio [15] | diameter of the inhibition zone (DIZ) [16] [mm] | MIC [17] [µg/mL] | Ratio [19] | Ratio [20] | other results |
| --- | --- | --- | --- | --- | --- | --- | --- | --- | --- | --- | --- | --- | --- | --- | --- | --- | --- | --- | --- | --- | --- |
| CCOC(=O)c1sc(/N=C2\NC(=O)/C(=C3/C(=O)Nc4ccccc43)S2)nc1C | 0.98 (≈ 2.36 µM) | Stable | 1.25 | 21.8 | 2 | 22.7 | 125 (≈ 302 µM) | 72.14 | 0.78 (≈ 1.88 µM) | 100 (≈ 241 µM) | 22.4 | 1.95 (≈ 4.7 µM) | 21.6 | 1.95 (≈ 4.7 µM) | 0.98 (≈ 2.36 µM) | 2 | 22.5 | 0.98 (≈ 2.36 µM) | – | – | – |
| CCOC(=O)c1sc(/N=C2\NC(=O)/C(=C3/C(=O)Nc4ccc(OC)cc43)S2)nc1C | 0.98 (≈ 2.2 µM) | Stable | < 0.312 | 22.1 | – | 23.3 | > 62.5 | 84.35 | 0.39 (≈ 0.877 µM) | > 200 | 22.6 | 1.95 (≈ 4.39 µM) | 22.1 | 0.98 (≈ 2.2 µM) | 0.98 (≈ 2.2 µM) | 2 | 22.7 | 1.95 (≈ 4.39 µM) | 2 | 2 | Ratio [18]: 2 |
| CCOC(=O)c1sc(/N=C2\NC(=O)/C(=C3/C(=O)Nc4ccc(Cl)cc43)S2)nc1C | 0.49 (≈ 1.09 µM) | Stable | < 0.625 | 22.6 | – | 24.4 | > 125 | 56.34 | 0.39 (≈ 0.869 µM) | > 200 | 23.2 | 0.98 (≈ 2.18 µM) | 22.7 | 0.98 (≈ 2.18 µM) | 0.98 (≈ 2.18 µM) | 4 | 23.1 | 1.95 (≈ 4.34 µM) | 2 | 2 | Ratio [21]: 2; Ratio [18]: 2 |
| CC(=O)c1sc(/N=C2\NC(=O)/C(=C3/C(=O)N(Cc4ccccc4)c4ccc(Cl)cc43)S2)nc1C | 0.49 (≈ 0.963 µM) | – | – | 23.5 | 2 | 25.3 | – | 80.34 | 0.39 (≈ 0.766 µM) | – | 25.6 | 0.98 (≈ 1.93 µM) | 23.6 | 0.49 (≈ 0.963 µM) | 0.98 (≈ 1.93 µM) | 4 | 23.6 | 0.98 (≈ 1.93 µM) | 2 | 4 | Ratio [21]: 2; Ratio [18]: 2 |
| CCOC(=O)c1sc(/N=C2\NC(=O)/C(=C3/C(=O)N(Cc4ccccc4)c4ccccc43)S2)nc1C | 0.49 (≈ 0.971 µM) | Stable | 2.5 | 23.1 | 2 | 25.2 | 500 (≈ 991 µM) | 87.38 | 0.39 (≈ 0.773 µM) | 200 (≈ 396 µM) | 24.8 | 1.95 (≈ 3.86 µM) | 23.2 | 0.98 (≈ 1.94 µM) | 1.95 (≈ 3.86 µM) | 2 | 24.2 | 0.98 (≈ 1.94 µM) | – | 2 | – |
| CCOC(=O)c1sc(/N=C2\NC(=O)/C(=C3/C(=O)N(C)c4ccccc43)S2)nc1C | 0.98 (≈ 2.29 µM) | Stable | 2.5 | 21.5 | – | 22.4 | 500 (≈ 1170 µM) | 76.35 | 0.39 (≈ 0.91 µM) | 200 (≈ 467 µM) | 21.5 | 1.95 (≈ 4.55 µM) | 21.6 | 1.95 (≈ 4.55 µM) | 1.95 (≈ 4.55 µM) | 2 | 21.8 | 1.95 (≈ 4.55 µM) | – | – | – |
| CC(=O)c1sc(/N=C2\NC(=O)/C(=C3/C(=O)Nc4ccc(Cl)cc43)S2)nc1C | 0.49 (≈ 1.17 µM) | – | – | 22.5 | 2 | 24.2 | – | 74.32 | 0.78 (≈ 1.86 µM) | – | 24.3 | 0.98 (≈ 2.34 µM) | 22.9 | 0.49 (≈ 1.17 µM) | 0.98 (≈ 2.34 µM) | 4 | 22.1 | 0.98 (≈ 2.34 µM) | 2 | 4 | Ratio [21]: 2 |
| CN[C@H](CC(C)C)C(=O)N[C@H]1C(=O)N[C@@H](CC(N)=O)C(=O)N[C@H]2C(=O)N[C@H]3C(=O)N[C@H](C(=O)N[C@H](C(=O)O)c4cc(O)cc(O)c4-c4cc3ccc4O)[C@H](O)c3ccc(c(Cl)c3)Oc3cc2cc(c3O[C@@H]2O[C@H](CO)[C@@H](O)[C@H](O)[C@H]2O[C@H]2C[C@](C)(N)[C@H](O)[C@H](C)O2)Oc2ccc(cc2Cl)[C@H]1O [VANCOMYCIN] | – | – | – | – | – | – | – | – | – | – | – | – | – | – | – | – | – | – | – | – | MIC [22]: 1.95 µg/mL (≈ 1.35 µM) |
| O=C(O)c1cn(C2CC2)c2cc(N3CCNCC3)c(F)cc2c1=O [CIPROFLOXACIN] | – | – | – | 23.1 | – | – | – | – | – | – | 24.3 | 3.9 (≈ 11.8 µM) | – | 1.95 (≈ 5.89 µM) | 1.95 (≈ 5.89 µM) | – | 22.2 | – | – | – | MIC [23]: 3.9 µg/mL (≈ 11.8 µM) |
